Data from ChEMBL document CHEMBL5335856, “Structurally Diverse Alkaloids with Anti-Renal-Fibrosis Activity from the Centipede Scolopendra subspinipes mutilans” (J Nat Prod, 2024).
Calls of active or inactive are those of the source.

What was measured:
[1] = tested on: NRK-52E; test: Anti-renal-fibrosis activity in TGF-beta1 induced rat NRK-52E cells assessed as downregulation of alpha-SMA protein level by Western blot analysis; type: functional, cell-based; conditions: dose 5-40 µM
[2] = target: 2-oxoisovalerate dehydrogenase subunit beta, mitochondrial (Homo sapiens) (UniProt P21953); test: Binding affinity to BCKDHB (unknown origin) at 200 uM preincubated for 2 hrs followed by pronase addition and measured after 30 mins by coomassie blue staining based SDS-PAGE gel analysis
[3] = tested on: RAW264.7; test: Antiinflammatory activity against LPS-induced mouse RAW264.7 cells assessed as reduction in iNOS protein level at 20 uM; type: functional, cell-based
[4] = tested on: NRK-52E; test: Anti-renal-fibrosis activity in TGF-beta1 induced rat NRK-52E cells assessed as downregulation of fibronectin expression at 40 uM; type: functional, cell-based
[5] = target: Tropomyosin alpha-3 chain (Homo sapiens) (UniProt P06753); test: Binding affinity to Tpm3 (unknown origin) at 200 uM preincubated for 2 hrs followed by pronase addition and measured after 30 mins by coomassie blue staining based SDS-PAGE gel analysis
[6] = tested on: NRK-52E; test: Anti-renal-fibrosis activity in TGF-beta1 induced rat NRK-52E cells assessed as downregulation of alpha-SMA protein level at 20 uM by Western blot analysis; type: functional, cell-based

Measured: Activity

Sequence of Tropomyosin alpha-3 chain (Homo sapiens) (P06753 whole entry): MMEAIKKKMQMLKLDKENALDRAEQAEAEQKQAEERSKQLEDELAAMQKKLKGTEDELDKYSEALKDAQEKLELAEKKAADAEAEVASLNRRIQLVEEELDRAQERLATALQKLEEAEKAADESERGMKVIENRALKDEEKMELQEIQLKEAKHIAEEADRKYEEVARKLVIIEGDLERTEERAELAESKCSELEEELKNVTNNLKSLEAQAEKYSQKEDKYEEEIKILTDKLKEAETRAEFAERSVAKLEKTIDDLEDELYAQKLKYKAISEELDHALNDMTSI
Sequence of 2-oxoisovalerate dehydrogenase subunit beta, mitochondrial (Homo sapiens) (P21953 whole entry): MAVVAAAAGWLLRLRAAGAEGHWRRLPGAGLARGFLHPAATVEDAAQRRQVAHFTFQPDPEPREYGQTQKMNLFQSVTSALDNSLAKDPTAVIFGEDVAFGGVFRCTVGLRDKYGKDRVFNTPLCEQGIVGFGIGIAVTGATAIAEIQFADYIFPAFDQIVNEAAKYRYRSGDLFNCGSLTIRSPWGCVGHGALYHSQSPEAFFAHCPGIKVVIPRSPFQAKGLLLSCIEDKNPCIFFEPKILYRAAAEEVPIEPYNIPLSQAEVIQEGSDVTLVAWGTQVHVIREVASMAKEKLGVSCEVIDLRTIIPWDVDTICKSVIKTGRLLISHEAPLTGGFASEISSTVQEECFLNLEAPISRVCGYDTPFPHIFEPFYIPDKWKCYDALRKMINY

COc1c(O)nc2c(O)cccc2c1OC
active: [1] Dose-Dependent Effect | [2] | [3] | [4] | [5] | [6]
